According to patent US6407096B1, “Benzene fused heterocyclic derivatives having thromboxane A2 receptor antagonistic activity and prostaglandin I2 Agonistic activity and application thereof” (Toray Industries, Inc., priority 1998, dated 2002):

Assays:
[1] = system: platelet-rich plasma (PRP), platelet aggregation induced by ADP; test: Platelet aggregation inhibiting action 2 (ADP-induced aggregation in PRP); assay type: cell-based; details: human PRP, aggregation induced by ADP (final 1 to 10 μM), compound added 1 minute before
Protocol: (§1) The blood collected from the human medial cubital vein was centrifuged 800 rpm for 10 minutes, and the upper portion was collected as platelet-rich plasma (PRP). PRP was dispensed to small test tubes, and ADP was added thereto (the final concentration 1 to 10 μM) to induce platelet aggregation. The degree of platelet aggregation was measured as a change in turbidity by a platelet aggregation measuring device (Hematracer 1, Nikko Bioscience). Each compound was added 1 minute before the addition of ADP, and a concentration at which aggregation was 50% inhibited was calculated as IC50 value.

[2] = system: platelet-rich plasma (PRP), platelet aggregation induced by TXA2 agonist U-46619; test: Platelet aggregation inhibiting action 1 (U-46619-induced aggregation in PRP); assay type: cell-based; details: human PRP, aggregation induced by U-46619 (final 1 to 4 μM), compound added 1 minute before
Protocol: as §1, with “was centrifuged at 800 rpm” for “was centrifuged 800 rpm”, “tubes, and TXA2 agonist U-46619 was added” for “tubes, and ADP was added”, “1 to 4 μM) to” for “1 to 10 μM) to”, “addition of U-46619, and a” for “addition of ADP, and a”, “calculated as a IC50 value.” for “calculated as IC50 value.”

[3] = target: T1, TXA2 receptor (Homo sapiens, UniProt P21731); test: TXA2 receptor binding test ([3H]SQ29548, platelet membrane fraction); details: [3H]SQ29548 10 nM, 25° C., 30 minutes, read-out: TXA2 receptor affinity Ki
T1 construct: The finally obtained sediment was used as a platelet membrane fraction; from tissue; host or cells: human platelets (membrane fraction from venous blood)
T1 sequence (P21731 1-343): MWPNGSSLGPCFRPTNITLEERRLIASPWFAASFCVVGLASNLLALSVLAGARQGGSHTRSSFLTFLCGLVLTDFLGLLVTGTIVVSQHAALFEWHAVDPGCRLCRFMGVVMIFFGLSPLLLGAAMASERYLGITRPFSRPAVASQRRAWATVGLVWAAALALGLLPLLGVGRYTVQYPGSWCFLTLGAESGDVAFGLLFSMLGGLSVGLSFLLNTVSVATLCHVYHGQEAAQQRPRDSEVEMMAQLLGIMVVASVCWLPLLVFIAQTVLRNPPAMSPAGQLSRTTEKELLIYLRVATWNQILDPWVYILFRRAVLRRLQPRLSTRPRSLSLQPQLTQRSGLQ
Protocol: The blood collected from the human antebrachial vein and 1/10 volume of ACD solution (85 mM trisodium citrate, 65 mM citric acid, 2% glucose) were mixed, and 8 ml of the mixture was dispensed to each of Spitz tubes. The platelet-rich plasma obtained by centrifugation at room temperature and 200×g for 10 minutes was further centrifuged at 1000×g for 15 minutes to obtain platelets. The thus-obtained platelets were centrifugally washed with a cleaning buffer (115 mM sodium chloride, 4.3 mM potassium dihydrogen phosphate, 5.5 mM glucose, 1 mM disodium EDTA, 10 μM […], pH 6.5), and 1 ml of a dissolution buffer (10 mM tris(hydroxymethyl)aminomethane, 5 mM magnesium chloride, 2 mM disodium EDTA, pH 7.4) was added to-the platelets, followed by three times of freezing in liquid nitrogen and melting at room temperature to crush the platelets. The crushed platelets were cleaned by three times of ultracentrifugation (40000×g, 20 minutes each) using […] ice-cold tris-hydrochloric acid buffer. The finally obtained sediment was used as a platelet membrane fraction.
As a TXA2 receptor ligand, tritium-labeled SQ29548 ([^3H]SQ29548) was used. As a solvent for receptor binding reaction, a 50 mM tris-hydrochloric acid buffer ([…] magnesium chloride, pH 7.4) was used. A saturation test was conducted by reaction of [^3H]SQ29548 (100 μl) at a final concentration of 3 to 100 nM and 0.1 mg protein/ml of platelet membrane fraction suspension (100 μl) at 25° C. for 30 minutes under shaking. […] Then, radioactivity was measured by a scintillation counter. Nonspecific binding to a substance other than the receptor was determined by reaction in the presence of SQ29548 at a final concentration of […]. In the competitive experiment, IC50 value and Hill coefficient of each of the test compounds were determined by pseudo-Hill plots, and the receptor dissociation constant (Ki value) was determined from the IC50 value and the receptor dissociation constant (Kd value) of [^3H]SQ29548, which was obtained by saturation experiment, according to the following equation: […]

[4] = target: T2, PGI2 receptor (Homo sapiens, UniProt P43119); test: PGI2 receptor binding experiment (tritium-labeled compound A, platelet membrane fraction); details: tritium-labeled compound A 10 nM, 4° C., 60 minutes, read-out: PGI2 receptor affinity Ki
T2 construct: 0.1 mg protein/ml of platelet membrane fraction suspension (100 μl) at 4° C. for 60 minutes; from tissue; host or cells: platelets (membrane fraction)
Protocol: As a PGI2 receptor ligand, tritium-labeled (1R, 2R, 3aS, 8bS)-2,3,3a,8b-tetrahydro-2-hydroxy-1-[(E)-(3S, 4S)-3-hydroxy-4-methyl-1-octene-6-ynyl]-1H-cyclopenta [b]benzofuran-4-butanoic acid (compound A) was used. A saturation test was conducted by reaction of compound A (100 μl) at a final concentration of 3 to 100 nM and 0.1 mg protein/ml of platelet membrane fraction suspension (100 μl) at 4° C. for 60 minutes under shaking. Competitive experiment was carried out by reaction of a mixed solution (100 μl) of a test compound dissolved in an appropriate solvent and diluted and compound A at a final concentration of 10 nM, and 0.1 mg protein/ml of platelet membrane fraction suspension (100 μl) at 4° C. for 60 minutes under shaking. After the completion of reaction, the membrane fraction was recovered on a glass filter by a cell harvester, and washed with an ice-cold buffer. Then, radioactivity was measured by a scintillation counter. Nonspecific binding to a substance other than the receptor was determined by reaction in the presence of beraprost sodium at a final concentration of […]. In the competitive experiment, IC50 value and Hill coefficient of each of test compounds were determined by pseudo-Hill plots, and the receptor dissociation constant (Ki value) was determined from the IC50 value and the receptor dissociation constant (Kd value) of compound A, which was obtained by saturation experiment, according to the following equation:
Ki value=IC50 value/[1+(radioactive ligand concentration/Kd value)]

T2 sequence (P43119 whole entry): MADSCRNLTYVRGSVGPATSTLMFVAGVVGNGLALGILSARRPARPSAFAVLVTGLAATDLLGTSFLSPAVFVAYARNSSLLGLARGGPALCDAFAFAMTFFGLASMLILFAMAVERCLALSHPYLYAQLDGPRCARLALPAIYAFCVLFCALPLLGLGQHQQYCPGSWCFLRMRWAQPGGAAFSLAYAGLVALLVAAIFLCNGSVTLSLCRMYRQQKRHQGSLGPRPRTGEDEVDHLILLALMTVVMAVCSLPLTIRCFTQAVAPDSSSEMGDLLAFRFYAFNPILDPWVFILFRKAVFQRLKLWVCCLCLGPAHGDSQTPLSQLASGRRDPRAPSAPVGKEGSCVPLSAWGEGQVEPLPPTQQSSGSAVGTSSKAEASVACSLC

SMILES	melting point	IC50 [1]	IC50 [2]	Ki [3]	Ki [4]
CC(C)(SCCN1CCOc2c(OCC(=O)O)cccc21)c1ccccc1 [Example 24, (4-(2-(1-methyl-1-phenylethylthio)ethyl)-3,4-dihydro-2H-1,4-benzoxazin-8-yloxy)acetic acid]	114 °C	–	–	–	–
COC(=O)COc1cccc2c1OCC(=O)N2CC(=O)NC(c1ccccc1)c1ccccc1 [Example 12, Methyl (4-((diphenylmethylcarbamoyl)methyl)-3-oxo-3,4-dihydro-2H-1,4-benzoxazin-8-yloxy)acetate]	183 to 184 °C	–	–	–	–
O=C(O)COc1cccc2c1OCCN2CCSC(c1ccccc1)c1ccccc1 [Example 20, (4-(2-(diphenylmethylthio)ethyl)-3,4-dihydro-2H-1,4-benzoxazin-8-yloxy)acetic acid]	172.5 °C	2000 nM	1300 nM	–	–
CC(SCCC1COc2c(OCC(=O)O)cccc21)(c1ccccc1)c1ccccc1 (stereo not shown) [Example 37, (3-(2-(1,1-diphenylethylthio)ethyl)-2,3-dihydrobenzofuran-7-yloxy)acetic acid]	65 to 67 °C	1800 nM	490 nM	–	–
O=C(O)COc1cccc2c1OCCN2CCSC(c1ccccc1)(c1ccccc1)C(F)(F)F [Example 22, (4-(2-(1,1-diphenyl-2,2,2-trifluoroethylthio)ethyl)-3,4-dihydro-2H-1,4-benzoxazin-8-yloxy)acetic acid]	140 to 140.5 °C	–	–	–	–
CC(SCCN1CCOc2c(OCC(=O)[O-])cccc21)(c1ccccc1)c1ccccc1.[Na+]	110 °C	–	–	–	–
O=C(O)COc1cccc2c1OCC2CCSC(c1ccccc1)c1ccccc1 (stereo not shown) [Example 36, (3-(2-(diphenylmethylthio)ethyl)-2,3-dihydrobenzofuran-7-yloxy)acetic acid]	88 to 89 °C	950 nM	550 nM	70 nM	230 nM
CC(SCCN1C(=O)COc2c(CCC(=O)O)cccc21)(c1ccccc1)c1ccccc1 [Example 33, 3-(4-(2-(1,1-diphenylethylthio)ethyl)-3-oxo-3,4-dihydro-2H-1,4-benzoxazin-8-yl)propionic acid]	110.1 °C	–	–	–	–
O=C(O)COc1cccc2c1OCC(=O)N2CC(=O)NC(c1ccccc1)c1ccccc1 [Example 32, (4-((diphenylmethylcarbamoyl)methyl)-3-oxo-3,4-dihydro-2H-1,4-benzoxazin-8-yloxy)acetic acid]	232 to 234 °C	–	–	–	–
CC(CSCCN1CCOc2c(OCC(=O)O)cccc21)(c1ccccc1)c1ccccc1 [Example 26, (4-(2-(2,2-diphenylpropylthio)ethyl)-3,4-dihydro-2H-1,4-benzoxazin-8-yloxy)acetic acid]	138 to 139 °C	–	–	–	–
CC(SCCN1CCOc2c(OCC(=O)O)cccc21)(c1ccsc1)c1ccsc1 [Example 27]	149 °C	–	–	–	–
CC(SCCN1CCOc2c(OCC(=O)O)cccc21)(c1ccccc1)c1ccccc1 [Example 21, (4-(2-(1,1-diphenylethylthio)ethyl)-3,4-dihydro-2H-1,4-benzoxazin-8-yloxy)acetic acid]	161 to 161.5 °C	1800 nM	550 nM	50 nM	430 nM
O=C(O)COc1cccc2c1OCCN2CCSCc1ccccc1 [Example 25, (4-(2-(benzylthio)ethyl)-3,4-dihydro-2H-1,4-benzoxazin-8-yloxy) acetic acid]	127 to 131 °C	–	–	–	–
O=C(O)COc1cccc2c1OCCN2CCOC(c1ccccc1)c1ccccc1 [Example 28, (4-(2-(diphenylmethoxy)ethyl)-3,4-dihydro-2H-1,4-benzoxazin-8-yloxy)acetic acid]	112 to 113 °C	16000 nM	5700 nM	–	–
COC(=O)COc1cccc2c1OCCN2CCSC(c1ccccc1)c1ccccc1	94 to 95 °C	–	–	–	–
CC(OCCN1CCOc2c(OCC(=O)O)cccc21)(c1ccccc1)c1ccccc1 [Example 29, (4-(2-(1,1-diphenylethoxy)ethyl)-3,4-dihydro-2H-1,4-benzoxazin-8-yloxy)acetic acid]	108 °C	16000 nM	5500 nM	–	–
CC(SCCN1C(=O)COc2c(OCC(=O)O)cccc21)(c1ccccc1)c1ccccc1 [Example 31, (4-(2-(1,1-diphenylethylthio)ethyl)-3-oxo-3,4-dihydro-2H-1,4-benzoxazin-8-yloxy)acetic acid]	106 °C	–	–	–	–
COC(=O)COc1cccc2c1OCCN2CCSC(C)(c1ccccc1)c1ccccc1 [Example 2, Methyl (4-(2-(1,1-diphenylethylthio)ethyl)-3,4-dihydro-2H-1,4-benzoxazin-8-yloxy)acetate]	101 °C	–	–	–	–
CC(SCCN1CCCc2c(OCC(=O)O)cccc21)(c1ccccc1)c1ccccc1 [Example 34, (1-(2-(1,1-diphenylethylthio)ethyl)-1,2,3,4-tetrahydroquinolin-5-yloxy)acetic acid]	150.5 to 152 °C	1300 nM	590 nM	120 nM	520 nM
CC(SCCN1CCOc2c(OCC(=O)O)cccc21)(c1ccc(F)cc1)c1ccc(F)cc1 [Example 23, (4-(2-(1,1-bis-(4-fluorophenyl)ethylthio)-ethyl)-3,4-dihydro-2H-1,4-benzoxazin-8-yloxy)acetic acid]	142 to 143 °C	–	–	–	–
